Converted amounts (≈) assume the structure as drawn.
Experiments:
in vivo [1] = conditions: CD1, mouse, plasma, po, 10 mg/kg
in vivo [2] = conditions: CD1, mouse, po, 10 mg/kg
in vivo [3] = conditions: CD1, mouse, po, 10 mg/kg; remark: listed apart in the source
Description: Half life in CD1 mouse at 10 mg/kg, po

in vivo [4] = conditions: CD1, mouse, po, 10 mg/kg; remark: listed apart in the source
in vitro [5] = conditions: human, hepatocytes
CYP3A4 = CYP3A4 (Homo sapiens, UniProt P08684); assay: in vitro; conditions: probe testosterone
Description: Inhibition of CYP3A4 (unknown origin) assessed as oxidation of testosterone at 10 uM

CYP2D6 = CYP2D6 (Homo sapiens, UniProt P10635); assay: in vitro; conditions: probe testosterone
Description: Inhibition of CYP2D6 (unknown origin) assessed as oxidation of testosterone at 10 uM

physchem = conditions: PBS buffer, pH 7.4
Description: Solubility of the compound in pH 7.4 PBS buffer

[6] = biological target: T1, Nuclear receptor ROR-gamma (Homo sapiens, UniProt P51449)
T1 sequence (P51449 whole entry): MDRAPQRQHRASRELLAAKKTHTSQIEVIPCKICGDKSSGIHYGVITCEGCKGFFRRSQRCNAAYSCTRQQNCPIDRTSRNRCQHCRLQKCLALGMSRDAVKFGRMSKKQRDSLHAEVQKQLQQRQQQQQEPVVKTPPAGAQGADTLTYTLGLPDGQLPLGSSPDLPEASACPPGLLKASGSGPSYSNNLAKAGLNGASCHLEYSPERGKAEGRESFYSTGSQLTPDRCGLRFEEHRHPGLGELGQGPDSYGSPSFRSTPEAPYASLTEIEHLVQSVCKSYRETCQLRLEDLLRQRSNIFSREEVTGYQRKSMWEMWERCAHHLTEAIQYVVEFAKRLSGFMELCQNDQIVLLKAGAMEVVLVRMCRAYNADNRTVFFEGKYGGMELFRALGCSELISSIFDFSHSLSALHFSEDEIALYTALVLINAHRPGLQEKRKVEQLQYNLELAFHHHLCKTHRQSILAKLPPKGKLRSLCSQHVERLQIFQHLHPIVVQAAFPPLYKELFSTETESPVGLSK
Description: Agonist activity at human ROR-gamma LBD expressed in HEK293 cells assessed as transcriptional activity in presence of ursolic acid by Gal4-luciferase reporter assay

[7] = biological target: T2, Nuclear receptor subfamily 1 group I member 2 (Homo sapiens, UniProt O75469)
T2 sequence (O75469 whole entry): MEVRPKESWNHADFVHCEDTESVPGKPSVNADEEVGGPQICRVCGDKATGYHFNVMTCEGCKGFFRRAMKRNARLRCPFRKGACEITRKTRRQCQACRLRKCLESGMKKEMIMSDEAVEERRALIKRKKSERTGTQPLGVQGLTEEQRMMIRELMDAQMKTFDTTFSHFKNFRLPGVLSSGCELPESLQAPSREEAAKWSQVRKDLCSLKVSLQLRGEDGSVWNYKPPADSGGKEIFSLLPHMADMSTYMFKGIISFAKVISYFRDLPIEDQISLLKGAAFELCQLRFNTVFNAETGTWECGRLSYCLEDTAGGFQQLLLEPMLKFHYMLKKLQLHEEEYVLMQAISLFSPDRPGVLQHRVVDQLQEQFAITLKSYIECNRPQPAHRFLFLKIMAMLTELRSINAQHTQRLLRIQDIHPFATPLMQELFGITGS
Description: Agonist activity at human PXR-gamma expressed in HEK293 cells assessed as transcriptional activity in presence of ursolic acid by Gal4-luciferase reporter assay

in vitro [8] = conditions: human, hepatocytes; remark: listed apart in the source
Description: Clearance in human hepatocyte measured per 10^6 cells

[9] = biological target: T1, Nuclear receptor ROR-gamma; remark: listed apart in the source
Description: Agonist activity at human His-tagged RORgamma-LBD expressed in Sf9 cells assessed as inhibition of N-terminal biotinylated co-activator SRC1 recruitment in presence of ursolic acid measured after 60 mins by FRET assay

[10] = biological target: T3, Nuclear receptor ROR-alpha (Homo sapiens, UniProt P35398)
T3 sequence (P35398 whole entry): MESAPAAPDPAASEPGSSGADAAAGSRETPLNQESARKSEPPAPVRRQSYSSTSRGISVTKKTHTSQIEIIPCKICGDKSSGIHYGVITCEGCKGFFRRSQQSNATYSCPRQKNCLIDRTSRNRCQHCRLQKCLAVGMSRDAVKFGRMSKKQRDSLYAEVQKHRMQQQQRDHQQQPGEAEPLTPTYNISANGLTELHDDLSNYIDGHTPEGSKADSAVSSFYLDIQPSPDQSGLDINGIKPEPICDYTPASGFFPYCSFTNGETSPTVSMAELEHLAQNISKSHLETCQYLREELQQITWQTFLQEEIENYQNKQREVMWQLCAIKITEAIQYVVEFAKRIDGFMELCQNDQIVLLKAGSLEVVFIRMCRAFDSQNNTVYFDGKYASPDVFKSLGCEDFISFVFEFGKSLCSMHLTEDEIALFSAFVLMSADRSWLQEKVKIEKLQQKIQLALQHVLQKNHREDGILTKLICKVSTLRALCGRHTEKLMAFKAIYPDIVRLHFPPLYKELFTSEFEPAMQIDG
Description: Agonist activity at RORalpha (unknown origin)

[11] = biological target: T4, Nuclear receptor ROR-beta (Homo sapiens, UniProt Q92753)
T4 sequence (Q92753 whole entry): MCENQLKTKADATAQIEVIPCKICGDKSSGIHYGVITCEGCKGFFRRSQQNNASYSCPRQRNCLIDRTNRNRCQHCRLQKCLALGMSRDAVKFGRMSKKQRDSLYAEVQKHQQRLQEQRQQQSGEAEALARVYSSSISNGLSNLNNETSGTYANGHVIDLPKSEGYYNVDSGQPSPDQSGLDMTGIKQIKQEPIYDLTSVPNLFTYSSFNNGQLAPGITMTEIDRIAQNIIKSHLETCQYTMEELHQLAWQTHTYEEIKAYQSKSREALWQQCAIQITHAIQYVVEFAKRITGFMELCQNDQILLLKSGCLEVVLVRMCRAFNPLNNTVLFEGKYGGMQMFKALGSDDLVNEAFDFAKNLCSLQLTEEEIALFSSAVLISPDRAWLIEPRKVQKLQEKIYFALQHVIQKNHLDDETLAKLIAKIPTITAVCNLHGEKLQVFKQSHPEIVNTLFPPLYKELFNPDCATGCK
Description: Agonist activity at RORbeta (unknown origin)

cells = conditions: Mus musculus, C57/BL6
Description: In vivo agonist activity at RORgamma in C57/BL6 mouse assessed as plasma concentration required to increase RORgamma targeted gene expression in isolated thymocytes

in vivo [12] = conditions: Sprague-Dawley, rat, po, at 30 to 300 mg/kg
in vivo [13] = conditions: Sprague-Dawley, rat, iv, 1 mg/kg
Description: Half life in Sprague-Dawley rat at 1 mg/kg, iv

in vivo [14] = conditions: Sprague-Dawley, rat, iv, 1 mg/kg; remark: listed apart in the source
Description: Volume of distribution in Sprague-Dawley rat at 1 mg/kg, iv

in vivo [15] = conditions: cynomolgus monkey, po, at 30 to 300 mg/kg
in vivo [16] = conditions: cynomolgus monkey, iv, 1 mg/kg
Description: Half life in cynomolgus monkey rat at 1 mg/kg, iv

in vivo [17] = conditions: cynomolgus monkey, iv, 1 mg/kg; remark: listed apart in the source
Description: Volume of distribution in cynomolgus monkey rat at 1 mg/kg, iv

hERG (KCNH2) = hERG (KCNH2) (Homo sapiens, UniProt Q12809); assay: in vitro
Description: Inhibition of human ERG by patch-clamp assay

in vitro [18] = conditions: mouse, plasma
Description: Plasma protein binding in mouse

in vitro [19] = conditions: human, plasma
Description: Plasma protein binding in human

MC-38 = assay: animal or person; conditions: Mus musculus, MC-38, po, 600 h, read-out: TGI
Description: Antitumor activity against mouse MC38 cells implanted in C57/BL6 mouse assessed as tumor growth inhibition at 30 mg/kg, po twice daily measured up to 25 days

CYP3A4, sequence (P08684 whole entry): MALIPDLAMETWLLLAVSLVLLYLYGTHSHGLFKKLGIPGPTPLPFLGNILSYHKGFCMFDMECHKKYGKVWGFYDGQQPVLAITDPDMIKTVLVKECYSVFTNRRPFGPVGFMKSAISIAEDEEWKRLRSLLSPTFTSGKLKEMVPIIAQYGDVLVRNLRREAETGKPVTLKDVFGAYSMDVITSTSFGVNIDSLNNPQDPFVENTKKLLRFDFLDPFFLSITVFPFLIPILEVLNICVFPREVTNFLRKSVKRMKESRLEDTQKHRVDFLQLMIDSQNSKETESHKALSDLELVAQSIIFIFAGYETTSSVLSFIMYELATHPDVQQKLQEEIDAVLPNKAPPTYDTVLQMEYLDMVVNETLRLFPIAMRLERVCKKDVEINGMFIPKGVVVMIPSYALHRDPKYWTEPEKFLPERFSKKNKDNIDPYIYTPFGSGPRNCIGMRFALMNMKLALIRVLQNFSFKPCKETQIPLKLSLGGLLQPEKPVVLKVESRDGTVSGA
CYP2D6, sequence (P10635 whole entry): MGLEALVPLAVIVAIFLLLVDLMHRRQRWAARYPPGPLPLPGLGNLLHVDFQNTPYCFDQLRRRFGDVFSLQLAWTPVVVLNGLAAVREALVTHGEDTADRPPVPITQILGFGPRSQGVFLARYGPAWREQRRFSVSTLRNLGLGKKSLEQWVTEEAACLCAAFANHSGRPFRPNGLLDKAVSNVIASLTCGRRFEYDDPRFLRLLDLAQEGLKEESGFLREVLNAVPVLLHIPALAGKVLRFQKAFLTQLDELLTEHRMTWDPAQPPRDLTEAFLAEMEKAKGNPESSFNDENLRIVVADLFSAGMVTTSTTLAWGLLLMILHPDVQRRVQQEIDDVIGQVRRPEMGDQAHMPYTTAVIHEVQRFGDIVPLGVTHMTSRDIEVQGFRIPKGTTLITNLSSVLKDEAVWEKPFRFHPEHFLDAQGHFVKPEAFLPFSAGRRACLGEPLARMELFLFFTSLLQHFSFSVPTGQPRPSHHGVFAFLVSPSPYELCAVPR
hERG (KCNH2), sequence (Q12809 whole entry): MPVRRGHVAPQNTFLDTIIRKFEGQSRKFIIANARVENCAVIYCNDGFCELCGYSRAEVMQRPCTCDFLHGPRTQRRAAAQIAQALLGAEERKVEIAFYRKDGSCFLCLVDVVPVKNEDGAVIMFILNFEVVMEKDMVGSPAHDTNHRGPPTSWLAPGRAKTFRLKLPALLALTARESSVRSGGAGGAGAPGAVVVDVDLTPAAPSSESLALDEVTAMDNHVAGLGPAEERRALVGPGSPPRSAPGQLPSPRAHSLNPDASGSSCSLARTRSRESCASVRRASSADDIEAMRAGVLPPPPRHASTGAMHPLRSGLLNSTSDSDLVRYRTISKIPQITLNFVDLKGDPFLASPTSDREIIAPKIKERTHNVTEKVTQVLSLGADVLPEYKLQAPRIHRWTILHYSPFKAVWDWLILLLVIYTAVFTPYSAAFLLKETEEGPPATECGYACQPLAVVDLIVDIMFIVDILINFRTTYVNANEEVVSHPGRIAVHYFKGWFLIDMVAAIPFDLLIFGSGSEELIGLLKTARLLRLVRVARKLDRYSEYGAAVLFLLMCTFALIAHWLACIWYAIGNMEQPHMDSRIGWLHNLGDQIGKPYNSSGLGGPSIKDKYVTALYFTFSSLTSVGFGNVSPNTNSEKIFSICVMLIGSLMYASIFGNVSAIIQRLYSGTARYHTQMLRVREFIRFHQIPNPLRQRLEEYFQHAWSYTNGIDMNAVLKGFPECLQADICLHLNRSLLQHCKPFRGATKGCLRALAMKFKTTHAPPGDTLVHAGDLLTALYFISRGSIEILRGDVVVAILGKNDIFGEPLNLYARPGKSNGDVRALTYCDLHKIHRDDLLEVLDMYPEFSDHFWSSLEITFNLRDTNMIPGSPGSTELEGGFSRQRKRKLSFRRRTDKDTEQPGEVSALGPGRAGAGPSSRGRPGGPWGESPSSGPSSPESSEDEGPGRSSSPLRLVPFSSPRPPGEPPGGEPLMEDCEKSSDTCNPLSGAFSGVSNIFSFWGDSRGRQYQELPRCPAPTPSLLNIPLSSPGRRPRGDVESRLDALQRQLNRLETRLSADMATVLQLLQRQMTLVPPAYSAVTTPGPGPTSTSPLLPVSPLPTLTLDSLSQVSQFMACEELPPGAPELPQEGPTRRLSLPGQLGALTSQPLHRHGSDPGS

Row | CL/F (in vivo [1]) | AUC(0-inf) (in vivo [2]) | half-life (in vivo [3]) | bioavailability (in vivo [4]) | hepatocyte CLint (in vitro [5]) | inhibition at 10 µM (CYP3A4) | inhibition at 10 µM (CYP2D6) | solubility (physchem) | EC50 [6] | EC50 [7] | EC50 [9] | Compound | other results
1 | 2 mL/min/kg | 71000 ng·h/mL | 3.69 h | 86% | 20 µL/min/1e6 cells | 8% | 3% | 15 µM (≈ 9.3 µg/mL) | – | – | – | O=C(O)CC[C@H]1CN(S(=O)(=O)c2cccc(C(F)(F)F)c2)c2cc(/C=C/c3c(Cl)cccc3C(F)(F)F)ccc2O1 | –
2 | 7.8 mL/min/kg | 35600 ng·h/mL | 1.66 h | 100% | 15 µL/min/1e6 cells | 19% | 6% | 288 µM (≈ 174 µg/mL) | 199 nM | > 10000 nM | – | CCOc1nn2c(c1S(=O)(=O)N1C[C@H](CCC(=O)O)Oc3ccc(/C=C(\C)c4c(F)cccc4Cl)cc31)CCCC2 | –
3 | 70.2 mL/min/kg | 1400 ng·h/mL | 2.74 h | 59% | 17 µL/min/1e6 cells | – | – | 262 µM (≈ 162 µg/mL) | – | – | – | O=C(O)C1(C[C@H]2CN(S(=O)(=O)c3cccc(C(F)(F)F)c3)c3cc(-c4cc(F)cc(OC(F)F)c4)ccc3O2)COC1 | hepatocyte CLint (in vitro [8]): 17 µL/min/1e6 cells
4 | 13.2 mL/min/kg | 9820 ng·h/mL | 7.35 h | 78% | 7.7 µL/min/1e6 cells | 28% | 6% | 13 µM (≈ 7.22 µg/mL) | 344 nM | > 10000 nM | 13 nM | CC(C)(C[C@H]1CN(S(=O)(=O)c2cccc(C(F)(F)F)c2)c2cc(-c3cc(F)ccc3F)ccc2O1)C(=O)O | –
5 | 11.1 mL/min/kg | 11700 ng·h/mL | 4.44 h | 78% | 32 µL/min/1e6 cells | 20% | 0% | 243 µM (≈ 128 µg/mL) | 414 nM | > 10000 nM | 9 nM | O=C(O)CC[C@H]1CN(S(=O)(=O)c2cccc(C(F)(F)F)c2)c2cc(-c3ccccc3Cl)ccc2O1 | –
6 | 8.1 mL/min/kg | 19600 ng·h/mL | 3.45 h | 95% | 26 µL/min/1e6 cells | 11% | 6% | 247 µM (≈ 134 µg/mL) | 144 nM | > 10000 nM | 262 nM | O=C(O)CC[C@H]1CN(S(=O)(=O)c2cccc(C(F)(F)F)c2)c2cc(-c3cccc(F)c3Cl)ccc2O1 | –
7 | – | 3240 ng·h/mL | 4.31 h | 55% | – | 9.5% | 6% | 10 µM (≈ 6.04 µg/mL) | – | – | – | CC(C)(C[C@H]1CN(S(=O)(=O)c2cccc(C(F)(F)F)c2)c2cc(-c3cc(F)cc(OC(F)F)c3)ccc2O1)C(=O)O [CINTIRORGON] | EC50 [10]: > 10000 nM; EC50 [11]: > 10000 nM; EC50 (cells): 338 nM; bioavailability (in vivo [12]): ≥ 100%; half-life (in vivo [13]): 2.8 h; Vd (in vivo [14]): 5.7 L/kg; bioavailability (in vivo [15]): ≥ 100%; half-life (in vivo [16]): 6.6 h; Vd (in vivo [17]): 1.42 L/kg; IC20 (hERG (KCNH2)): > 50000 nM; fraction unbound (in vitro [18]): 0.033; fraction unbound (in vitro [19]): 0.044; inhibition in vivo at 30 mg/kg (MC-38): 46%

Source: ChEMBL document CHEMBL4837250, “Discovery of LYC-55716: A Potent, Selective, and Orally Bioavailable Retinoic Acid Receptor-Related Orphan Receptor-γ (RORγ) Agonist for Use in Treating Cancer” (J Med Chem, 2021)
